The record followed here is ChEMBL document CHEMBL1126393, “Design, synthesis and activity against human cytomegalovirus of non-phosphorylatable analogs of toyocamycin, sangivamycin and thiosangivamycin” (Bioorg Med Chem Lett, 1992).

The test system of assay [1] is HFF. The assay can be described thus: In vitro inhibition of human cytomegalovirus in HFF cells by plaque reduction assay. In kind it is functional, cell-based.
Assay [2] is described as follows: Cytotoxicity of compound in uninfected cells determined by examining the effect on growth of KBcells. In kind it is functional, Homo sapiens.
A short description of assay [3]: Selectivity index is the ratio of CC50 to IC50. In kind it is functional.
For assay [4], the system named is HFF. The assay is described as follows: Visual cytotoxicity of compound in uninfected cells determined by examining the effect on growth of HFF cells. In kind it is functional, Homo sapiens.
For assay [5], the system named is HFF. The assay can be described thus: Cytotoxicity of compound in uninfected cells determined by examining the effect on growth of HFF cells. In kind it is functional, Homo sapiens.

`Cn1cc(C#N)c2c(N)ncnc21` returned an IC50 in assay [1] above 100 µM. Besides, in assay [2], the Cytotoxicity was above 100 µM.
The compound `NC(=S)c1cn(COCCO)c2ncnc(N)c12` returned an IC50 in assay [1] of 8.8 µM. In addition, in assay [3], the SI is 13. Besides, the Cytotoxicity in assay [2] was found to be 115 µM.
`N#Cc1cn(COCCO)c2ncnc(N)c12`: the IC50 in assay [1] is above 100 µM. The same compound had a Cytotoxicity in assay [4] above 100 µM.
Turning to `NC(=S)c1cn(COC(CO)CO)c2ncnc(N)c12`, 6.2 µM corresponded to half-maximal inhibition in assay [1] (IC50). The compound further had a Cytotoxicity in assay [5] above 100 µM.
For `NC(=O)c1cn(COCCO)c2ncnc(N)c12`, in that order: above 100 µM and above 100 µM.
On to `C=CCn1cc(C(N)=S)c2c(N)ncnc21`, for which 2.1 µM corresponded to half-maximal inhibition in assay [1] (IC50). For the same compound, the SI in assay [3] was found to be 9. Also, the Cytotoxicity in assay [2] is 19 µM.
As for `NC(=O)c1cn(COC(CO)CO)c2ncnc(N)c12`, the IC50 in assay [1] is above 100 µM. The same compound returned a Cytotoxicity in assay [5] above 100 µM.
Consider `Cn1cc(C(N)=O)c2c(N)ncnc21`, for which, in assay [1], the IC50 is above 100 µM. In assay [2], this compound displayed a Cytotoxicity above 100 µM.
In assay [1], `CCCn1cc(C(N)=O)c2c(N)ncnc21` showed an IC50 above 100 µM. Moreover, the Cytotoxicity in assay [2] came out at 90 µM.
As to `Cn1cc(C(=N)S)c2c(N)ncnc21`, the IC50 in assay [1] worked out at 1.2 µM. In addition, the SI in assay [3] came out at 12. The compound further displayed a Cytotoxicity in assay [2] of 14.7 µM.
As for `Nc1nc2c(ncn2COC(CO)CO)c(=O)[nH]1` [GANCICLOVIR], the midpoint of inhibition in assay [1], the IC50, lay at 8.4 µM. The Cytotoxicity in assay [2] was above 100 µM.
Compound `CCCn1cc(C#N)c2c(N)ncnc21` displayed an IC50 in assay [1] of 36 µM. The compound further returned a Cytotoxicity in assay [2] above 100 µM.
For the compound `C=CCn1cc(C(N)=O)c2c(N)ncnc21`, the IC50 in assay [1] is above 100 µM. Moreover, the Cytotoxicity in assay [2] is 90 µM.
`CCCn1cc(C(=N)S)c2c(N)ncnc21` showed an IC50 in assay [1] of 1.2 µM. In addition, the SI in assay [3] is 14. The compound further displayed a Cytotoxicity in assay [2] of 17 µM.
On to `N#Cc1cn(COC(CO)CO)c2ncnc(N)c12`, for which, in assay [1], the IC50 was above 100 µM. Also, the Cytotoxicity in assay [4] is above 100 µM.
In turn, `C=CCn1cc(C#N)c2c(N)ncnc21` had an IC50 in assay [1] above 100 µM. Besides, the Cytotoxicity in assay [2] is above 100 µM.
